Test results from ChEMBL document CHEMBL1137171, “D-piece modifications of the hemiasterlin analog HTI-286 produce potent tubulin inhibitors” (Bioorg Med Chem Lett, 2004).

Assays:
Conditions in all cases: Homo sapiens
[1] = Compound was tested for cytotoxicity against paclitaxel resistant KB-V1 cell line expressing P-glycoprotein
KB = test: Compound was tested for cytotoxicity against paclitaxel resistant KB-8-5 cell line expressing P-glycoprotein; format: functional, cell-based
KB 3-1 = test: Compound was tested for cytotoxicity against paclitaxel sensitive KB-3-1 cell line; format: functional, cell-based

Structure (SMILES)	IC50 [1]	IC50 (KB)	IC50 (KB 3-1)
CN[C@H](C(=O)N[C@H](C(=O)N(C)[C@H](/C=C(\C)C(=O)N1CCC[C@@H]1C(=O)OC)C(C)C)C(C)(C)C)C(C)(C)c1cccc(Cl)c1	362 nM	6.2 nM	2.5 nM
CN[C@H](C(=O)N[C@H](C(=O)N(C)[C@H](/C=C(\C)C(=O)N1CCC[C@@H]1C(=O)OC)C(C)C)C(C)(C)C)C(C)(C)c1ccccc1	291 nM	7.3 nM	1.5 nM
CN[C@H](C(=O)N[C@H](C(=O)N(C)[C@H](/C=C(\C)C(=O)N1CC=C[C@@H]1C(=O)O)C(C)C)C(C)(C)C)C(C)(C)c1ccccc1	> 3000 nM	184 nM	58 nM
CN[C@H](C(=O)N[C@H](C(=O)N(C)[C@H](/C=C(\C)C(=O)N1CCC[C@@H]1C(=O)OC)C(C)C)C(C)(C)C)C(C)(C)C1CCCCC1	493 nM	16 nM	3.7 nM
CN[C@H](C(=O)N[C@H](C(=O)N(C)[C@H](/C=C(\C)C(=O)N1CCC[C@H]1C(=O)O)C(C)C)C(C)(C)C)C(C)(C)c1ccccc1	> 3000 nM	1580 nM	515 nM
CN[C@H](C(=O)N[C@H](C(=O)N(C)[C@H](/C=C(\C)C(=O)N1CCC[C@@H]1C(=O)O)C(C)C)C(C)(C)C)C(C)(C)c1ccccc1	> 3000 nM	205 nM	62 nM
CN[C@H](C(=O)N[C@H](C(=O)N(C)[C@H](/C=C(\C)CO)C(C)C)C(C)(C)C)C(C)(C)c1ccccc1	1590 nM	447 nM	454 nM
CN[C@H](C(=O)N[C@H](C(=O)N(C)[C@H](/C=C(\C)C(=O)N1CCC[C@@H]1C(=O)OC)C(C)C)C(C)(C)C)C(C)(C)c1cccc(C)c1	275 nM	6.2 nM	1.6 nM
CN[C@H](C(=O)N[C@H](C(=O)N(C)[C@H](/C=C(C)/C=C(\C)C(=O)O)C(C)C)C(C)(C)C)C(C)(C)c1ccccc1	1580 nM	53 nM	27 nM
CN[C@H](C(=O)N[C@H](C(=O)N(C)[C@H](/C=C(\C)C=O)C(C)C)C(C)(C)C)C(C)(C)c1ccccc1	1590 nM	447 nM	454 nM
CN[C@H](C(=O)N[C@H](C(=O)N(C)[C@H](/C=C(\C)C(=O)N1CCC[C@@H]1C(=O)O)C(C)C)C(C)(C)C)C(C)(C)c1cccc(Cl)c1	> 3000 nM	180 nM	62 nM
CN[C@H](C(=O)N[C@H](C(=O)N(C)[C@H](/C=C(\C)C(=O)N1CCC[C@@H]1C(=O)O)C(C)C)C(C)(C)C)C(C)(C)c1ccc(C)c(C)c1	> 3000 nM	519 nM	74 nM
CN[C@H](C(=O)N[C@H](C(=O)N(C)[C@H](/C=C(\C)[C@H](O)c1ccccc1)C(C)C)C(C)(C)C)C(C)(C)c1ccccc1	632 nM	186 nM	124 nM
CN[C@H](C(=O)N[C@H](C(=O)N(C)[C@H](/C=C(\C)C(=O)c1ccccc1)C(C)C)C(C)(C)C)C(C)(C)c1ccccc1	1800 nM	1330 nM	725 nM
CN[C@H](C(=O)N[C@H](C(=O)N(C)[C@H](/C=C/C(=O)O)C(C)C)C(C)(C)C)C(C)(C)c1ccccc1	> 3000 nM	479 nM	191 nM
CN[C@H](C(=O)N[C@H](C(=O)N(C)[C@H](/C=C(\C)c1ccccc1)C(C)C)C(C)(C)C)C(C)(C)c1ccccc1	> 3000 nM	> 3000 nM	> 3000 nM
CN[C@H](C(=O)N[C@H](C(=O)N(C)[C@H](/C=C/c1nn[nH]n1)C(C)C)C(C)(C)C)C(C)(C)c1ccccc1	> 3000 nM	1820 nM	1150 nM
CN[C@H](C(=O)N[C@H](C(=O)N(C)[C@H](/C=C(/C)C(=O)O)C(C)C)C(C)(C)C)C(C)(C)c1ccccc1	2630 nM	58 nM	28 nM
CN[C@H](C(=O)N[C@H](C(=O)N(C)[C@H](/C=C1/C(=O)NC(=O)N1C)C(C)C)C(C)(C)C)C(C)(C)c1ccccc1	230 nM	9.9 nM	5.1 nM
CN[C@H](C(=O)N[C@H](C(=O)N(C)[C@H](/C=C(\C)C(C)O)C(C)C)C(C)(C)C)C(C)(C)c1ccccc1 (some centres not stated)	1460 nM	172 nM	63 nM

Structure (SMILES)	IC50 [1]	IC50 (KB)	IC50 (KB 3-1)
CN[C@H](C(=O)N[C@H](C(=O)N(C)[C@H](/C=C(\C)C(=O)N1CC=C[C@@H]1C(=O)OC)C(C)C)C(C)(C)C)C(C)(C)c1ccccc1	272 nM	17 nM	3.5 nM
CN[C@H](C(=O)N[C@H](C(=O)N(C)[C@H](C(=O)N1CCC[C@@H]1C(=O)O)C(C)C)C(C)(C)C)C(C)(C)c1ccccc1	> 3000 nM	> 3000 nM	> 3000 nM
CN[C@H](C(=O)N[C@H](C(=O)N(C)[C@H](/C=C(\C)C(=O)N1CCCC[C@@H]1C(=O)O)C(C)C)C(C)(C)C)C(C)(C)c1ccccc1	> 3000 nM	270 nM	64 nM
CN[C@H](C(=O)N[C@H](C(=O)N(C)[C@H](/C=C(\C)C(=O)N1CCCC[C@@H]1C(=O)OC)C(C)C)C(C)(C)C)C(C)(C)c1ccccc1	150 nM	17 nM	5.2 nM
CN[C@H](C(=O)N[C@H](C(=O)N(C)[C@H](/C=C(\C)C(=O)c1ncc[nH]1)C(C)C)C(C)(C)C)C(C)(C)c1ccccc1	> 3000 nM	1360 nM	218 nM
CN[C@H](C(=O)N[C@H](C(=O)N(C)[C@H](/C=C(\C)C(=O)N1CCC[C@@H]1C(=O)NCCc1ccccc1)C(C)C)C(C)(C)C)C(C)(C)c1ccccc1	1670 nM	21 nM	6.4 nM
CN[C@H](C(=O)N[C@H](C(=O)N(C)[C@H](/C=C(\C)C(=O)O)C(C)C)C(C)(C)C)C(C)(C)c1ccccc1 [TALTOBULIN]	77 nM	2.3 nM	0.96 nM
CN[C@H](C(=O)N[C@H](C(=O)N(C)[C@H](/C=C(\C)C(C)=O)C(C)C)C(C)(C)C)C(C)(C)c1ccccc1	2360 nM	664 nM	403 nM
CN[C@H](C(=O)N[C@H](C(=O)N(C)[C@H](/C=C(\C)C(O)c1nccs1)C(C)C)C(C)(C)C)C(C)(C)c1ccccc1 (some centres not stated)	364 nM	19 nM	13 nM
CN[C@H](C(=O)N[C@H](C(=O)N(C)[C@H](/C=C(\C)C(=O)CO)C(C)C)C(C)(C)C)C(C)(C)c1ccccc1	1130 nM	68 nM	43 nM
CN[C@H](C(=O)N[C@H](C(=O)N(C)[C@H](/C=C(\C)C(=O)c1nccs1)C(C)C)C(C)(C)C)C(C)(C)c1ccccc1	1790 nM	565 nM	582 nM
CN[C@H](C(=O)N[C@H](C(=O)N(C)[C@H](/C=C(\C)C(=O)N1CC(O)C[C@@H]1C(=O)O)C(C)C)C(C)(C)C)C(C)(C)c1ccccc1 (some centres not stated)	> 3000 nM	1850 nM	184 nM
CN[C@H](C(=O)N[C@H](C(=O)N(C)[C@H](/C=C(\C)C(=O)N1CCC[C@H]1C(=O)OC)C(C)C)C(C)(C)C)C(C)(C)c1ccccc1	1100 nM	51 nM	16 nM
CN[C@H](C(=O)N[C@H](C(=O)N(C)[C@H](/C=C(\C)C(O)c1ccccc1)C(C)C)C(C)(C)C)C(C)(C)c1ccccc1 (single isomer, unassigned)	190 nM	22 nM	16 nM
CN[C@H](C(=O)N[C@H](C(=O)N(C)[C@H](/C=C1\NC(=O)NC1=O)C(C)C)C(C)(C)C)C(C)(C)c1ccccc1	> 3000 nM	1740 nM	1070 nM
CN[C@H](C(=O)N[C@H](C(=O)N(C)[C@H](/C=C(\C)C(=O)N1CCC[C@@H]1C(=O)O)C(C)C)C(C)(C)C)C(C)(C)c1cccc(C)c1	> 3000 nM	599 nM	70 nM
CN[C@H](C(=O)N[C@H](C(=O)N(C)[C@H](C(=O)O)C(C)C)C(C)(C)C)C(C)(C)c1ccccc1	> 3000 nM	> 3000 nM	> 3000 nM
CN[C@H](C(=O)N[C@H](C(=O)N(C)[C@H](/C=C(\C)C(=O)N1CC(O)C[C@@H]1C(=O)OC)C(C)C)C(C)(C)C)C(C)(C)c1ccccc1 (some centres not stated)	> 3000 nM	116 nM	3.5 nM
CN[C@H](C(=O)N[C@H](C(=O)N(C)[C@H](/C=C(\C)C(=O)N1CCC[C@@H]1C(=O)OC)C(C)C)C(C)(C)C)C(C)(C)c1ccc(C)c(C)c1	363 nM	15 nM	1.9 nM
